What all share (type): cell-based, murine
Series [1] deals with RAW-Lucia target cells. In words: Relative luciferase activity of RAW-Lucia cells after BLAST delivery (FIG. 5). The settings on record: Treatment 2: BLAST, 2.5 uM cGAMP solution; 4 hour and 24 hour. On the procedure: FIG. 5 provides further experimental evidence with respect to the efficiency of cargo delivery to the specific target cells with respect to using a biophotonic laser-assisted surgery tool (BLAST, as described in Nature Methods 12, 439-444 (2015)). The two charts of FIG. 5 show the relative luciferase activity of RAW-Lucia target cells four hours after treatment and 24 hours after treatment under three different treatment configurations.
Treatment configuration 1 represents a control group where the cell population is not treated in order to provide a base line result.
Treatment configuration 2 leverages BLAST where the cell population is bathed in a 2.5 uM cGAMP solution.
Treatment configuration 3 includes co-incubation of the cell populations with a 2.5 uM cGAMP solution. However, the cell population is not exposed to laser stimulation via BLAST.
It should be appreciated that FIG. 5 illustrates the efficacy of a method of inducing an interferon response in specific target cells, including target cells within a heterogeneous cell population. Free cyclic di-nucleotide cargo (i.e., cGAMP in the scenario of FIG. 5) was introduced to the cell population such that the cGAMP remained external to the target cells in a 2.5 uM solution. […]

The next series concerns RAW-Lucia ISG cells. In words: RAW-Lucia ISG luciferase reporter, gold nanoparticle optofection of cGAMP (photomicrographs, FIGS. 2A-2C). The source says: FIGS. 2A-2C illustrate experimental evidence indicating the validity of the disclosed techniques though the use of RAW-Lucia® ISG cells that express luciferase when a Type I IFN response pathway is activated (see FIG. 3) by a CDN.
FIG. 2A represents an experiment where gold nanoparticles lacking target cell ligands (here ligand for […]) and cGAMP cargo material are introduced to the cell population. No electro-magnetic stimulation is applied.
FIG. 2B represents an experiment where gold nanoparticles lacking target cell ligands (ligand for CD14) and cGAMP cargo material are introduced to the cell population. In this experiment, the nanoparticles were exposed to 3 mJ pulsed laser. […] The luciferase expression in FIG. 2B is considered to be present in response to random proximity of the gold nanoparticles to cells when the gold nanoparticles are excited by the laser.
FIG. 2C represents an experiment where gold nanoparticles having a CD14 ligand and cGAMP cargo material are both introduced to the cell population. In this case, the nanoparticles attach to the target cells.
The immune response induced in the experiments shown in FIGS. 2A-2C is evidenced by production of luciferase in specifically targeted cells. A mentioned previously, the specifically target cells selected for the experiments were RAW-Lucia™ ISG cells commercially available from InvivoGen® (see URL www.invivogen.com/raw-lucia-isg). The RAW-Lucia cells express luciferase gene (Lucia) through various IFN-stimulated response elements (ISRE) as indicated in FIG. 3. Thus, when an IFN response is stimulated, the cells express the luciferase gene. Of specific note, when CDNs are introduced to the RAW-Lucia cells, the IFN response is activated causing expression of the luciferase gene. Therefore, FIG. 2C clearly provides evidence via substantial luciferase expression that the disclosed technique of causing a cell to uptake CDNs (e.g., cGAMP, etc.) via externally generated poration is capable of inducing an immune response. Such result is not necessarily predictable as laser excitation and concomitant cavitation events may damage or interfere with signal transduction events.
(Reporter assays use an easily measured gene product as a stand-in for the process of interest.)

Series [2] relates to RAW-Lucia target cells. In words: Relative luciferase activity of RAW-Lucia cells under treatment configurations (FIG. 4). Here is the method: FIG. 4 provides further experimental evidence with respect to the efficiency of cargo delivery to the specific target cells. The two charts show the relative luciferase activity of RAW-Lucia target cells four hours after treatment and 24 hours after treatment under different treatment configurations.
Treatment configuration 1 represents a cell population having no treatment where no nanoparticles and no laser are introduced to the RAW-Lucia cell population.
Treatment configuration 2 represents a cell population treated with CD14 ligand coated gold nanoparticles and a 10 uM cGAMP solution.
Treatment configuration 3 is similar to treatment configuration 2 with the exception that a 1 uM cGAMP solution was introduced to the cell population rather than a 10 uM cGAMP solution.
Treatment configuration 4 includes treating the target cells with just nanoparticles coated with CD14 ligand followed by application of laser stimulation.
Treatment configuration 5 is similar to Treatment 4, although lacking laser stimulation.
Treatment configuration 6 includes treating the cell population with just a 10 uM cGAMP solution without nanoparticles or application of laser stimulation.

The mark [3] stands for this setting: gold nanoparticles having a CD14 ligand plus cGAMP, 2 mJ pulsed laser (FIG. 2C).

We go through 1 compound from US10322177B2, “Activation of immune-related signaling pathways in cells via optofection” (Nant Holdings IP, LLC, priority 2015, dated 2019).

Turning to `Nc1nc2c(ncn2[C@@H]2O[C@@H]3COP(=O)(O)O[C@H]4[C@@H](O)[C@H](n5cnc6c(N)ncnc65)O[C@@H]4COP(=O)(O)O[C@@H]2[C@@H]3O)c(=O)[nH]1` [cGAMP], the relative luciferase activity result in the series on RAW-Lucia target cells [1] is given as “significant luciferase activity”; in the series with RAW-Lucia target cells [2] (Treatment 2: CD14 ligand coated gold nanoparticles, 10 uM cGAMP solution, laser, 4 h and 24 h after treatment) it was “significant luciferase activity”; in the series on RAW-Lucia target cells [2] (Treatment 3: CD14 ligand coated gold nanoparticles, 1 uM cGAMP solution, laser, 4 h and 24 h after treatment), “fairly similar to Treatment 2”; in the series with RAW-Lucia target cells [2] (Treatment 6: 10 uM cGAMP solution only, no nanoparticles, no laser), “reduced level of luciferase activity”. For the same compound, the cell viability result in the series with RAW-Lucia ISG cells (setting [3]) is listed as “substantially all cells retained viability”. Further, the luciferase expression entry with RAW-Lucia ISG cells (setting [3]) was “nearly all cells express luciferase”; with RAW-Lucia ISG cells (gold nanoparticles lacking target cell ligands plus cGAMP, 3 mJ pulsed laser (FIG. 2B)), “some cells express luciferase”; in the series with RAW-Lucia ISG cells (gold nanoparticles lacking target cell ligands plus cGAMP, no electro-magnetic stimulation (FIG. 2A)) it was “very little or negligible luciferase expression”.
